Results as given in patent US20260250251A1, “HETEROCYCLIC COMPOUNDS AS PI3Ka INHIBITORS” (Pikavation Therapeutics, Inc., priority 2022, published 2026).
Blank lines part the entries; values can stand above or below the compound they belong to.

How the values were obtained:
[1] = test system: T47D (PIK3CA H1047R) cells, pSer473 AKT; test: pS473 AKT assay in T47D cells; assay type: cell-based; conditions: Homo sapiens, treated 2 h, read-out: T47D_IC50
Experimental: (§1) SKBR3 (PIK3CA WT), MCF7 (PIK3CA E545K), and T47D (PIK3CA H1047R) cells were cultured using 10-cm petri dishes with recommended medium. One day before the assay, cells were seeded in 96-well plates. After overnight incubation, cells were treated with different concentrations of PI3Kα inhibitors for 2 h. Cells were then fixed using 4% paraformaldehyde at room temperature for 20 min. Cells were aspirated with 4% paraformaldehyde, and washed using 1× regular phosphate buffered saline 3 times, 5 min each. Any residual phosphate buffered saline was aspirated and cells were blocked using 10% goat serum containing 1% bovine serum albumin and 0.3% Triton X-100 at room temperature for 1 h. Without any additional washing, primary antibodies (rabbit anti-pSer473 AKT) were diluted using blocking buffer and added at a final volume of 50 microliter per well. Assay plates with primary antibodies were maintained overnight at 4° C. Cells were washed using 1× regular phosphate buffered saline 3 times, 5 min each. After the final wash, cells were incubated with horseradish peroxidase-conjugated secondary antibodies (goat Anti-rabbit IgG) and diluted using the same blocking buffer at room temperature for 1 h. Cells were then washed thoroughly using 1× regular phosphate buffered saline 3 times, 5 min each, and any residual phosphate buffered saline was aspirated. Super-Signal ELISA Pico Chemiluminescent Substrate was then added at a final volume of 100 microliter per well. Plates were read on a i3x Multi-Mode Microplate Reader and IC50 values calculated using GraphPad Prism software.
(§2) Results of the assay described above are presented in Table A. “++++” indicates an IC50 less than 1000 nM; “+++” indicates an IC50 greater than or equal to 1000 nM but less than 5000 nM; “++” indicates an IC50 greater than or equal to 5000 nM but less than 10000 nM; and “+” indicates an IC50 greater than or equal to 10000 nM.

[2] = test system: SKBR3 (PIK3CA WT) cells, pSer473 AKT; test: pS473 AKT assay in SKBR3 cells; assay type: cell-based; conditions: Homo sapiens, SK-BR-3, treated 2 h, read-out: SKBR3_IC50
Experimental: as §1, §2

SMILES: CN(C)c1nn(C)c2c(Cl)cc(NC(=O)c3cc(F)cc(C(F)(F)F)c3)c(Oc3cc(F)ccc3Cl)c12 [Example 54, N-(7-chloro-4-(2-chloro-5-fluorophenoxy)-3-(dimethylamino)-1-methyl-1H-indazol-5-yl)-3-fluoro-5-(trifluoromethyl)benzamide]
- IC50 [1]: ≥ 10 µM
- IC50 [2]: ≥ 10 µM

SMILES: CC(=O)N1CCC(C#Cc2cc(NC(=O)c3cc(F)cc(C(F)(F)F)c3)c(Oc3cc(F)ccc3Cl)c3c(N)nn(C)c23)CC1 [Example 52, N-(7-((1-Acetylpiperidin-4-yl)ethynyl)-3-amino-4-(2-chloro-5-fluorophenoxy)-1-methyl-1H-indazol-5-yl)-3-fluoro-5-(trifluoromethyl)benzamide]
- IC50 [1]: < 1 µM
- IC50 [2]: 1 to 5 µM

SMILES: Nc1nn(CCN2CCC2)c2c(Cl)cc(NC(=O)c3cc(F)cc(C(F)(F)F)c3)c(Oc3cc(F)ccc3Cl)c12 [Example 56, N-(3-Amino-1-(2-(azetidin-1-yl)ethyl)-7-chloro-4-(2-chloro-5-fluorophenoxy)-1H-indazol-5-yl)-3-fluoro-5-(trifluoromethyl)benzamide]
- IC50 [1]: < 1 µM
- IC50 [2]: 1 to 5 µM

SMILES: Cn1nc(N)c2c(Oc3cc(F)ccc3Cl)c(NC(=O)c3cc(F)cc(Cl)c3)cc(Cl)c21 [Example 60, N-(3-Amino-7-chloro-4-(2-chloro-5-fluorophenoxy)-1-methyl-1H-indazol-5-yl)-3-chloro-5-fluorobenzamide]
- IC50 [1]: < 1 µM
- IC50 [2]: < 1 µM

SMILES: Nc1nn2c3c(cc(NC(=O)c4cc(F)cc(C(F)(F)F)c4)c(Oc4cc(F)ccc4Cl)c13)CNC(=O)C2 [Example 36, N-(2-Amino-3-(2-chloro-5-fluorophenoxy)-8-oxo-6,7,8,9-tetrahydro-[1,4]diazepino[6,7,1-hi]indazol-4-yl)-3-fluoro-5-(trifluoromethyl)benzamide]
- IC50 [1]: < 1 µM
- IC50 [2]: < 1 µM

SMILES: Nc1nn(CCO)c2c(C#Cc3ccccn3)cc(NC(=O)c3cc(F)cc(C(F)(F)F)c3)c(Oc3cc(F)ccc3Cl)c12 [Example 67, N-(3-Amino-4-(2-chloro-5-fluorophenoxy)-1-(2-hydroxyethyl)-7-(pyridin-2-ylethynyl)-1H-indazol-5-yl)-3-fluoro-5-(trifluoromethyl)benzamide]
- IC50 [1]: < 1 µM
- IC50 [2]: 1 to 5 µM

SMILES: CC(=O)n1nc(N)c2c(Oc3cc(F)ccc3Cl)c(NC(=O)c3cc(F)cc(C(F)(F)F)c3)cc(Br)c21 [Example 82, N-(1-Acetyl-3-amino-7-bromo-4-(2-chloro-5-fluorophenoxy)-1H-indazol-5-yl)-3-fluoro-5-(trifluoromethyl)benzamide]
- IC50 [1]: < 1 µM
- IC50 [2]: 1 to 5 µM

SMILES: Nc1nn2c3c(cc(NC(=O)c4cc(F)cc(C(F)(F)F)c4)c(Oc4cc(F)ccc4Cl)c13)NC(=O)C2 [Example 32, N-(6-Amino-7-(2-chloro-5-fluorophenoxy)-2-oxo-2,3-dihydro-1H-pyrazolo[1,5,4-de]quinoxalin-8-yl)-3-fluoro-5-(trifluoromethyl)benzamide]
- IC50 [1]: < 1 µM
- IC50 [2]: < 1 µM

SMILES: Cc1cc(NC(=O)c2cc(F)cc(C(F)(F)F)c2)c(Oc2cc(F)ccc2Cl)c2c(N)n[nH]c12 [Example 13, N-(3-Amino-4-(2-chloro-5-fluorophenoxy)-7-methyl-1H-indazol-5-yl)-3-fluoro-5-(trifluoromethyl)benzamide]
- IC50 [1]: < 1 µM
- IC50 [2]: < 1 µM

SMILES: Cn1nc(N)c2c(Oc3cc(F)ccc3Cl)c(NC(=O)c3cc(F)cc(C(F)(F)F)c3)cc(C#CC3CCCCN3)c21 (stereo not drawn) [Example 78, N-(3-Amino-4-(2-chloro-5-fluorophenoxy)-1-methyl-7-(piperidin-2-ylethynyl)-1H-indazol-5-yl)-3-fluoro-5-(trifluoromethyl)benzamide]
- IC50 [1]: < 1 µM
- IC50 [2]: 1 to 5 µM

SMILES: Nc1n[nH]c2c(CN3CCOCC3)cc(NC(=O)c3cc(F)cc(C(F)(F)F)c3)c(Oc3cc(F)ccc3Cl)c12 [Example 21, N-(3-Amino-4-(2-chloro-5-fluorophenoxy)-7-(morpholinomethyl)-1H-indazol-5-yl)-3-fluoro-5-(trifluoromethyl)benzamide]
- IC50 [1]: < 1 µM
- IC50 [2]: < 1 µM

SMILES: Cn1nc(N)c2c(Oc3cc(F)ccc3Cl)c(NC(=O)c3cc(F)cc(C(F)(F)F)c3)cc(/C=C/c3ccccn3)c21 [Example 76, (E)-N-(3-Amino-4-(2-chloro-5-fluorophenoxy)-1-methyl-7-(2-(pyridin-2-yl)vinyl)-1H-indazol-5-yl)-3-fluoro-5-(trifluoromethyl)benzamide]
- IC50 [1]: < 1 µM
- IC50 [2]: 5 to 10 µM

SMILES: Nc1n[nH]c2ccc(NC(=O)c3cc(F)cc(C(F)(F)F)c3)c(Oc3cncc(Cl)c3)c12 [Example 3, N-(3-Amino-4-((5-chloropyridin-3-yl)oxy)-1H-indazol-5-yl)-3-fluoro-5-(trifluoromethyl)benzamide]
- IC50 [1]: < 1 µM
- IC50 [2]: ≥ 10 µM

The remaining lines, values ahead:

- IC50 [1]: < 1 µM
- IC50 [2]: 1 to 5 µM
SMILES: N#CCCn1nc(N)c2c(Oc3cc(F)ccc3Cl)c(NC(=O)c3cc(F)cc(C(F)(F)F)c3)cc(Cl)c21 [Example 34, N-(3-Amino-7-chloro-4-(2-chloro-5-fluorophenoxy)-1-(2-cyanoethyl)-1H-indazol-5-yl)-3-fluoro-5-(trifluoromethyl)benzamide]

- IC50 [1]: < 1 µM
- IC50 [2]: < 1 µM
SMILES: Cn1nc(N)c2c(Oc3cc(F)ccc3Cl)c(NC(=O)c3cc(F)cc(C(F)(F)F)c3)cc(C#CC3(O)CC3)c21 [Example 43, N-(3-Amino-4-(2-chloro-5-fluorophenoxy)-7-((1-hydroxycyclopropyl)ethynyl)-1-methyl-1H-indazol-5-yl)-3-fluoro-5-(trifluoromethyl)benzamide]

- IC50 [1]: < 1 µM
- IC50 [2]: 1 to 5 µM
SMILES: NC(=O)Cn1nc(N)c2c(Oc3cc(F)ccc3Cl)c(NC(=O)c3cc(F)cc(C(F)(F)F)c3)cc(Br)c21 [Example 33, N-(3-Amino-1-(2-amino-2-oxoethyl)-7-bromo-4-(2-chloro-5-fluorophenoxy)-1H-indazol-5-yl)-3-fluoro-5-(trifluoromethyl)benzamide]

- IC50 [1]: < 1 µM
- IC50 [2]: < 1 µM
SMILES: Nc1n[nH]c2c(Cl)cc(NC(=O)c3cc(F)cc(C(F)(F)F)c3)c(Oc3cc(F)ccc3Cl)c12 [Example 12, N-(3-Amino-7-chloro-4-(2-chloro-5-fluorophenoxy)-1H-indazol-5-yl)-3-fluoro-5-(trifluoromethyl)benzamide]

- IC50 [1]: < 1 µM
- IC50 [2]: < 1 µM
SMILES: Cn1nc(N)c2c(Oc3cc(F)ccc3Cl)c(NC(=O)c3cc(F)cc(C(F)(F)F)c3)cc(/C=C\C#N)c21 [Example 58, (Z)—N-(3-amino-4-(2-chloro-5-fluorophenoxy)-7-(2-cyanovinyl)-1-methyl-1H-indazol-5-yl)-3-fluoro-5-(trifluoromethyl)benzamide]

- IC50 [1]: < 1 µM
- IC50 [2]: < 1 µM
SMILES: Cn1nc(N)c2c(Oc3cc(F)ccc3Cl)c(NC(=O)c3cc(F)cc(C(F)(F)F)c3)cc(C#CCO)c21 [Example 49, N-(3-Amino-4-(2-chloro-5-fluorophenoxy)-7-(3-hydroxyprop-1-yn-1-yl)-1-methyl-1H-indazol-5-yl)-3-fluoro-5-(trifluoromethyl)benzamide]

- IC50 [1]: < 1 µM
- IC50 [2]: 1 to 5 µM
SMILES: Cn1nc(N)c2c(Oc3cc(F)ccc3Cl)c(NC(=O)c3cc(F)cc(C(F)(F)F)c3)cc(C#CC3CC3)c21 [Example 42, N-(3-Amino-4-(2-chloro-5-fluorophenoxy)-7-(cyclopropylethynyl)-1-methyl-1H-indazol-5-yl)-3-fluoro-5-(trifluoromethyl)benzamide]

- IC50 [1]: < 1 µM
- IC50 [2]: < 1 µM
SMILES: CCn1nc(N)c2c(Oc3cc(F)ccc3Cl)c(NC(=O)c3cc(F)cc(C(F)(F)F)c3)ccc21 [Example 8, N-(3-Amino-4-(2-chloro-5-fluorophenoxy)-1-ethyl-1H-indazol-5-yl)-3-fluoro-5-(trifluoromethyl)benzamide]

- IC50 [1]: < 1 µM
- IC50 [2]: < 1 µM
SMILES: Nc1nn2c3c(cc(NC(=O)c4cc(F)cc(C(F)(F)F)c4)c(Oc4cc(F)ccc4Cl)c13)CN(C1CCC1)C2=O [Example 72, N-(2-Amino-3-(2-chloro-5-fluorophenoxy)-7-cyclobutyl-8-oxo-7,8-dihydro-6H-pyrazolo[4,5,1-ij]quinazolin-4-yl)-3-fluoro-5-(trifluoromethyl)benzamide]

- IC50 [1]: < 1 µM
- IC50 [2]: < 1 µM
SMILES: Nc1n[nH]c2c(CO)cc(NC(=O)c3cc(F)cc(C(F)(F)F)c3)c(Oc3cc(F)ccc3Cl)c12 [Example 23, N-(3-Amino-4-(2-chloro-5-fluorophenoxy)-7-(hydroxymethyl)-1H-indazol-5-yl)-3-fluoro-5-(trifluoromethyl)benzamide]

- IC50 [1]: < 1 µM
- IC50 [2]: < 1 µM
SMILES: Cn1nc(N)c2c(Oc3cc(F)ccc3Cl)c(NC(=O)c3cc(F)cc(C(F)(F)F)c3)cc(/C=C/C#N)c21 [Example 57, (E)-N-(3-amino-4-(2-chloro-5-fluorophenoxy)-7-(2-cyanovinyl)-1-methyl-1H-indazol-5-yl)-3-fluoro-5-(trifluoromethyl)benzamide]
